# Measured values from US5110933A, “Salts of 3-azabicyclo[3.3.1]nonanes as antiarrhythmic agents, and precursors thereof” (Board of Regents of Oklahoma State University, priority 1990, dated 1992).
# Assays:
# [1] = test system: Sustained ventricular tachycardia induced by electrical pacing of infarcted dog heart; assay: Antiarrhythmic activity on sustained ventricular tachycardia induced by electrical pacing of infarcted dog heart; format: in vivo; conditions: for ability to reduce the rate of the induced VT or to eliminate the same: 3 mg/kg as well as 6 mg/kg
# Description: To illustrate the useful biological properties of the compounds described in this invention, selected derivatives were screened for antiarrhythmic activity using dog models. The clinically used agent lidocaine and 7-benzyl-3-thia-7-azabicyclo[3.3.1]nonane hydroperchlorate (48) [U.S. Pat. No. 4,581,361] were employed as standards as basis for comparison. A small infarction was created in an area of the dog heart and thereafter electrical pacing was initiated to generate a sustained ventricular tachycardia (VT). This irregular beating pattern of the heart results in a reduction of the pumping capability of the heart in a manner now accepted as resembling symptoms observed in humans during a heart attack (see: Scherlag, B. J. et. al., Am. J. Cardiol. 1983, 51, 207; Bailey, B. R. et. al., J. Med. Chem. 1984, 27, 759; Thompson, M. D. et. al., J. Med. Chem. 1987, 30, 780; U.S. Pat. No. 4,581,361; and U.S. Pat. No. 4,778,892 for further details, said references incorporated herein for such purposes). The effects of the selected compounds in terms of ability to reduce the rate of the induced VT or to eliminate the same (abolish the VT completely or at least not allow it to be sustained) is then evaluated and compared to lidocaine or to 7-benzyl-3-thia-7-azabicyclo[3.3.1]nonane hydroperchlorate (48).
# [2] = set-up: species or system rats; conditions: rat, in vivo, po
# [3] = Tissue distribution of radioactivity after oral administration of (48)*; set-up: species or system rats; conditions: rat, in vivo
# Description: In order to determine the potential viability of members of the above family to act as useful antiarrhythmic agents in vivo, a pharmacokinetic and metabolism study was undertaken using a representative example from the above compounds. The techniques employed in these preliminary studies are well documented, but a summary of pharmacokinetic procedures can be found in: J. D. Baggot, "Principals of Drug Disposition in Domestic Animals: The Basis of Veterinary Clinical Pharmacology", W. B. Saunders Company, Philadelphia, 1977. These studies were conducted using ^14 C-labelled (48)* [Prepared by the method of Zisman, Berlin, et al. J. Labelled Compounds and Radiopharmaceuticals, In Press (1989)] in Sprague-Dawley rats.
# Tissue distribution of (48)* was studied by measuring the radioactivity in selected organs collected from rats sacrificed at several time intervals after oral administration. […] These observations correlate well with the high volume of distribution calculated from pharmacokinetic data.
Compound,ability to reduce the rate of the induced VT or to eliminate the same [1],Effect on SVT ([1]; 3mg/kg),Effect on SVT ([1]; 6mg/kg),also measured
"COc1ccc(C(=O)N2CC3CC(C2)CN(C(C)C)C3)cc1OC.[O-][Cl+3]([O-])([O-])O [(3), 3-(3',4'-Dimethoxybenzoyl)-7-isopropyl-3,7-diazabicyclo[3.3.1]nonane Hydroperchlorate]",extremely effective in eliminating the induced VT,–,–,–
"[O-][S+]1CC2CC(CN(Cc3ccccc3)C2)C1 (stereo not drawn) [(10), 7-Benzyl-3-thia-7-azabicyclo[3.3.1]nonane 3-Oxide Hydroperchlorate]",reduced the rates of the induced VT but did not abolish them,Reduced rate of VT,Reduced rate of VT,–
"COC1(OC)C2CSCC1CN(Cc1ccccc1)C2 [(11), 7-Benzyl-9,9-dimethoxy-3-thia-7-azabicyclo[3.3.1]-nonane Hydroperchlorate]",extremely effective in eliminating the induced VT,–,–,–
Ethyl 3-Benzyl-3-azabicyclo[3.3.1]nonane-7-(endo)-carboxylate Hydroperchlorate [(13)],extremely effective in eliminating the induced VT,–,–,–
O=C(c1ccccc1)N1CC2CSCC(C2)C1 [(15)],reduced the rates of the induced VT but did not abolish them,Reduced,Reduced,–
"Ethyl 3-Benzyl-9,9-(1,3-dithiolan-2-yl)-3-azabicyclo[3.3.1]nonane-7-(endo)-carboxylate Hydroperchlorate [(14)]",extremely effective in eliminating the induced VT,–,–,–
c1ccc(CN2CC3CSCC(C3)C2)cc1 [(48)],–,–,–,excretion in urine [2]: most of the dose was excreted in the form of metabolites; radioactivity in liver and kidney [3]: High levels of radioactivity; radioactivity in the heart [3]: Reasonably high concentrations of radioactivity
"CC(C)N1CC2CC(CN(Cc3ccccc3)C2)C1 [(5), 7-Benzyl-3-isopropyl-3,7-diazabicyclo[3.3.1]nonane Hydroperchlorate]",extremely effective in eliminating the induced VT,–,–,–
"O=C1C2CC(CN(Cc3ccccc3)C2)CN1Cc1ccccc1 (stereo not drawn) [(17), 3,7-Dibenzyl-3,7-diazabicyclo[3.3.1]nonan-2-one]",reduced the rates of the induced VT but did not abolish them,Reduced,Reduced,–
"CC(C)N1CC2CC(CN(C(=O)c3ccccc3)C2)C1 [(1), 3-Benzoyl-7-isopropyl-3,7-diazabicyclo[3.3.1]nonane Hydroperchlorate]",extremely effective in eliminating the induced VT,–,–,–
"CC(C)N1CC2CSCC(C2)C1 [(8), 7-Isopropyl-3-thia-7-azabicyclo[3.3.1]nonane Hydroperchlorate]",exhibited little effect on the dog model,No action,No action,–
"COC1(OC)C2CN(Cc3ccccc3)CC1CN(Cc1ccccc1)C2 [(12), 3,7-Dibenzyl-9,9-dimethoxy-3,7-diazabicyclo[3.3.1]nonane Hydroperchlorate]",reduced the rates of the induced VT but did not abolish them,Reduced,Reduced,–
